In US20080063668A1, “Nitroimidazole and terconazole composition and method” (priority 2006, published 2008):

Experiments:
Test in all cases: Inhibition of bacteria growth, drug dilution tubes, anaerobic
Format in all cases: cell-based
[1] = tested on: Gardnerella vaginalis ATCC 14018; set-up: key: (+) for growth; (−) for no growth; (±) for suboptimal growth after an initial observation of growth
Method: (§1) Serial dilutions of tinidazole and terconazole were prepared by adding measured amounts of each substance to water (both individually and in combination). Seven bacterial organisms that are common pathogens in bacterial vaginosis were grown anaerobically in the medium as listed in Table 4 under a N2/H2/CO2 (85:5:10) head space atmosphere. [table] These cultures were diluted to a 0.5 McFarland standard prior to inoculation of drug dilution tubes. One (1) mL of the 0.5 McFarland preparation was inoculated to an anaerobically prepared test tube containing 0.8 mL of Difco anaerobic medium (DAMM) and 0.2 mL of appropriate diluted antimicrobial or antimicrobial combination for a total of 2 mL. The inoculated tubes were then incubated at 37° C. and monitored daily for growth. Growth was scored with a (+) for growth, (−) for no growth, and (±) for suboptimal growth after an initial observation of growth. Tinidazole is abbreviated as TNZ and terconazole is abbreviated as TER in Tables 5 through 11.

Atopobium vaginae BAA-55 = tested on: Atopobium vaginae BAA-55; set-up: key to growth: (+) for growth; (−) for no growth; (±) for suboptimal growth after an initial observation of growth
Method: as §1

[2] = tested on: Gardnerella vaginalis ATCC 14019; set-up: key to growth: (+) for growth; (−) for no growth; (±) for suboptimal growth after an initial observation of growth
Method: as §1

## CC(C)N1CCN(c2ccc(OCC3COC(Cn4cncn4)(c4ccc(Cl)cc4Cl)O3)cc2)CC1 (stereo not drawn) [TER, cis-1-[p[[2-(2,4-dichlorophenyl)-2-(1 H-1,2,4-triazol-1-ylmethyl)-1,3-dioxolan-4-yl]methoxy]phenyl]-4-isopropylpiperazine]
[1]; TER 3.1 μg/ml, DAY 1
  growth: (+)
[1]; TER 3.1 μg/ml, DAY 2
  growth: (+)
[1]; TER 3.1 μg/ml, DAY 3
  growth: (+)
[1]; TER 3.1 μg/ml, DAY 4
  growth: (+)
[1]; TER 3.1 μg/ml, DAY 5
  growth: (+)
[1]; TER 6.2 μg/ml, DAY 1
  growth: (+)
[1]; TER 6.2 μg/ml, DAY 2
  growth: (+)
[1]; TER 6.2 μg/ml, DAY 3
  growth: (+)
[1]; TER 6.2 μg/ml, DAY 4
  growth: (+)
[1]; TER 6.2 μg/ml, DAY 5
  growth: (+)
[1]; TER 12.5 μg/ml, DAY 1
  growth: (+)
[1]; TER 12.5 μg/ml, DAY 2
  growth: (+)
[1]; TER 12.5 μg/ml, DAY 3
  growth: (+)
[1]; TER 12.5 μg/ml, DAY 4
  growth: (+)
[1]; TER 12.5 μg/ml, DAY 5
  growth: (+)
[1]; TER 25 μg/ml, DAY 1
  growth: (+)
[1]; TER 25 μg/ml, DAY 2
  growth: (+)
[1]; TER 25 μg/ml, DAY 3
  growth: (+)
[1]; TER 25 μg/ml, DAY 4
  growth: (+)
[1]; TER 25 μg/ml, DAY 5
  growth: (+)
[1]; TER 50 μg/ml, DAY 1
  growth: (+)
[1]; TER 50 μg/ml, DAY 2
  growth: (+)
[1]; TER 50 μg/ml, DAY 3
  growth: (+)
[1]; TER 50 μg/ml, DAY 4
  growth: (+)
[1]; TER 50 μg/ml, DAY 5
  growth: (+)
[1]; TER 100 μg/ml, DAY 1
  growth: (+)
[1]; TER 100 μg/ml, DAY 2
  growth: (+)
[1]; TER 100 μg/ml, DAY 3
  growth: (+)
[1]; TER 100 μg/ml, DAY 4
  growth: (+)
[1]; TER 100 μg/ml, DAY 5
  growth: (+)
[1]; TER 200 μg/ml, DAY 1
  growth: (−)
[1]; TER 200 μg/ml, DAY 2
  growth: (+)
[1]; TER 200 μg/ml, DAY 3
  growth: (+)
[1]; TER 200 μg/ml, DAY 4
  growth: (+)
[1]; TER 200 μg/ml, DAY 5
  growth: (+)
[1]; TER 400 μg/ml, DAY 1
  growth: (−)
[1]; TER 400 μg/ml, DAY 2
  growth: (−)
[1]; TER 400 μg/ml, DAY 3
  growth: (−)
[1]; TER 400 μg/ml, DAY 4
  growth: (−)
[1]; TER 400 μg/ml, DAY 5
  growth: (−)
[1]; TER 800 μg/ml, DAY 1
  growth: (−)
[1]; TER 800 μg/ml, DAY 2
  growth: (−)
[1]; TER 800 μg/ml, DAY 3
  growth: (−)
[1]; TER 800 μg/ml, DAY 4
  growth: (−)
[1]; TER 800 μg/ml, DAY 5
  growth: (−)
Atopobium vaginae BAA-55; TER 3.1 μg/ml, DAY 1
  growth: (+)
Atopobium vaginae BAA-55; TER 3.1 μg/ml, DAY 2
  growth: (+)
Atopobium vaginae BAA-55; TER 3.1 μg/ml, DAY 3
  growth: (+)
Atopobium vaginae BAA-55; TER 3.1 μg/ml, DAY 4
  growth: (+)
Atopobium vaginae BAA-55; TER 3.1 μg/ml, DAY 5
  growth: (+)
Atopobium vaginae BAA-55; TER 6.2 μg/ml, DAY 1
  growth: (+)
Atopobium vaginae BAA-55; TER 6.2 μg/ml, DAY 2
  growth: (+)
Atopobium vaginae BAA-55; TER 6.2 μg/ml, DAY 3
  growth: (+)
Atopobium vaginae BAA-55; TER 6.2 μg/ml, DAY 4
  growth: (+)
Atopobium vaginae BAA-55; TER 6.2 μg/ml, DAY 5
  growth: (+)
Atopobium vaginae BAA-55; TER 12.5 μg/ml, DAY 1
  growth: (+)
Atopobium vaginae BAA-55; TER 12.5 μg/ml, DAY 2
  growth: (+)
Atopobium vaginae BAA-55; TER 12.5 μg/ml, DAY 3
  growth: (+)
Atopobium vaginae BAA-55; TER 12.5 μg/ml, DAY 4
  growth: (+)
Atopobium vaginae BAA-55; TER 12.5 μg/ml, DAY 5
  growth: (+)
Atopobium vaginae BAA-55; TER 25 μg/ml, DAY 1
  growth: (+)
Atopobium vaginae BAA-55; TER 25 μg/ml, DAY 2
  growth: (+)
Atopobium vaginae BAA-55; TER 25 μg/ml, DAY 3
  growth: (+)
Atopobium vaginae BAA-55; TER 25 μg/ml, DAY 4
  growth: (+)
Atopobium vaginae BAA-55; TER 25 μg/ml, DAY 5
  growth: (+)
Atopobium vaginae BAA-55; TER 50 μg/ml, DAY 1
  growth: (+)
Atopobium vaginae BAA-55; TER 50 μg/ml, DAY 2
  growth: (+)
Atopobium vaginae BAA-55; TER 50 μg/ml, DAY 3
  growth: (+)
Atopobium vaginae BAA-55; TER 50 μg/ml, DAY 4
  growth: (+)
Atopobium vaginae BAA-55; TER 50 μg/ml, DAY 5
  growth: (+)
Atopobium vaginae BAA-55; TER 100 μg/ml, DAY 1
  growth: (−)
Atopobium vaginae BAA-55; TER 100 μg/ml, DAY 2
  growth: (−)
Atopobium vaginae BAA-55; TER 100 μg/ml, DAY 3
  growth: (+)
Atopobium vaginae BAA-55; TER 100 μg/ml, DAY 4
  growth: (+)
Atopobium vaginae BAA-55; TER 100 μg/ml, DAY 5
  growth: (+)
Atopobium vaginae BAA-55; TER 200 μg/ml, DAY 1
  growth: (−)
Atopobium vaginae BAA-55; TER 200 μg/ml, DAY 2
  growth: (−)
Atopobium vaginae BAA-55; TER 200 μg/ml, DAY 3
  growth: (−)
Atopobium vaginae BAA-55; TER 200 μg/ml, DAY 4
  growth: (+)
Atopobium vaginae BAA-55; TER 200 μg/ml, DAY 5
  growth: (+)
Atopobium vaginae BAA-55; TER 400 μg/ml, DAY 1
  growth: (−)
Atopobium vaginae BAA-55; TER 400 μg/ml, DAY 2
  growth: (−)
Atopobium vaginae BAA-55; TER 400 μg/ml, DAY 3
  growth: (−)
Atopobium vaginae BAA-55; TER 400 μg/ml, DAY 4
  growth: (−)
Atopobium vaginae BAA-55; TER 400 μg/ml, DAY 5
  growth: (−)
Atopobium vaginae BAA-55; TER 800 μg/ml, DAY 1
  growth: (−)
Atopobium vaginae BAA-55; TER 800 μg/ml, DAY 2
  growth: (−)
Atopobium vaginae BAA-55; TER 800 μg/ml, DAY 3
  growth: (−)
Atopobium vaginae BAA-55; TER 800 μg/ml, DAY 4
  growth: (−)
Atopobium vaginae BAA-55; TER 800 μg/ml, DAY 5
  growth: (−)
Atopobium vaginae BAA-55; Tables 6 through 11
  antibacterial activity compared with tinidazole: superior to the antibacterial compound tinidazole
[2]
  antibacterial activity compared with tinidazole: superior to the antibacterial compound tinidazole
[2]; TER 3.1 μg/ml, DAY 1
  growth: (+)
[2]; TER 3.1 μg/ml, DAY 2
  growth: (+)
[2]; TER 3.1 μg/ml, DAY 3
  growth: (+)
[2]; TER 3.1 μg/ml, DAY 4
  growth: (+)
[2]; TER 3.1 μg/ml, DAY 5
  growth: (+)
[2]; TER 6.2 μg/ml, DAY 1
  growth: (+)
[2]; TER 6.2 μg/ml, DAY 2
  growth: (+)
[2]; TER 6.2 μg/ml, DAY 3
  growth: (+)
[2]; TER 6.2 μg/ml, DAY 4
  growth: (+)
[2]; TER 6.2 μg/ml, DAY 5
  growth: (+)
[2]; TER 12.5 μg/ml, DAY 1
  growth: (+)
[2]; TER 12.5 μg/ml, DAY 2
  growth: (+)
[2]; TER 12.5 μg/ml, DAY 3
  growth: (+)
[2]; TER 12.5 μg/ml, DAY 4
  growth: (+)
[2]; TER 12.5 μg/ml, DAY 5
  growth: (+)
[2]; TER 25 μg/ml, DAY 1
  growth: (+)
[2]; TER 25 μg/ml, DAY 2
  growth: (+)
[2]; TER 25 μg/ml, DAY 3
  growth: (+)
[2]; TER 25 μg/ml, DAY 4
  growth: (+)
[2]; TER 25 μg/ml, DAY 5
  growth: (+)
[2]; TER 50 μg/ml, DAY 1
  growth: (+)
[2]; TER 50 μg/ml, DAY 2
  growth: (+)
[2]; TER 50 μg/ml, DAY 3
  growth: (+)
[2]; TER 50 μg/ml, DAY 4
  growth: (+)
[2]; TER 50 μg/ml, DAY 5
  growth: (+)
[2]; TER 100 μg/ml, DAY 1
  growth: (+)
[2]; TER 100 μg/ml, DAY 2
  growth: (+)
[2]; TER 100 μg/ml, DAY 3
  growth: (+)
[2]; TER 100 μg/ml, DAY 4
  growth: (+)
[2]; TER 100 μg/ml, DAY 5
  growth: (+)
[2]; TER 200 μg/ml, DAY 1
  growth: (+)
[2]; TER 200 μg/ml, DAY 2
  growth: (+)
[2]; TER 200 μg/ml, DAY 3
  growth: (+)
[2]; TER 200 μg/ml, DAY 4
  growth: (+)
[2]; TER 200 μg/ml, DAY 5
  growth: (+)
[2]; TER 400 μg/ml, DAY 1
  growth: (+)
[2]; TER 400 μg/ml, DAY 2
  growth: (+)
[2]; TER 400 μg/ml, DAY 3
  growth: (+)
[2]; TER 400 μg/ml, DAY 4
  growth: (+)
[2]; TER 400 μg/ml, DAY 5
  growth: (+)
[2]; TER 800 μg/ml, DAY 1
  growth: (−)
[2]; TER 800 μg/ml, DAY 2
  growth: (−)
[2]; TER 800 μg/ml, DAY 3
  growth: (−)
[2]; TER 800 μg/ml, DAY 4
  growth: (−)
[2]; TER 800 μg/ml, DAY 5
  growth: (−)
